Experimental data as given in paper PMC3689833, “Neurochemical Changes in the Mouse Hippocampus Underlying the Antidepressant Effect of Genetic Deletion of P2X7 Receptors” (PLoS ONE, 2013).

Tests used:
acute hippocampal slices = test: [3H]Glutamate and endogenous glutamate release from acute hippocampal slices; format: cell-based, mouse; conditions: P2rx7−/− slices, ATP 10 mM, antagonist 100 nM 15 min before ATP
Procedure: The [^3H]Glu release experiments were conducted using the method described in our previous papers. Briefly, the mice were anaesthetized under light CO2 inhalation, and subsequently decapitated. The hippocampus was dissected from each mouse in ice-cold Krebs solution saturated with 95% O2 and 5% CO2, sectioned (400-µm-thick slices) using a McIlwain tissue chopper and incubated in 1 ml of modified Krebs solution (113 mM NaCl, 4.7 mM KCl, 2.5 mM CaCl2, 1.2 mM KH2PO4, 1.2 mM MgSO4, 25.0 mM NaHCO3, and 11.5 mM glucose), pH 7.4, in the presence of 5 µCi/ml [^3H]glutamic acid ([^3H]Glu, 9.8×10^−8 M, specific activity 51 Ci/mmol; Perkin Elmer) for 45 min. The medium was bubbled with 95% O2 and 5% CO2 and maintained at 32°C. After loading, the slices were continuously superfused with 95% O2 and 5% CO2-saturated modified Krebs solution (flow rate: 0.7 ml/min).
Subsequently, the perfused samples were collected over a 3-min period and measured for tritium content. At 6 min after the start of the collection, the slices were subjected to a 6-min perfusion of the agonist (ATP) at various concentrations (1, 3, 6 and 10 mM) and then changed to normal Krebs solution until the end of the collection period. In some experiments, the P2X1 receptor antagonist, NF449 (100 nM), or the selective P2rx7 antagonist Brilliant blue G (100 nM) was applied to the perfusion solution at 15 min before the beginning of the ATP perfusion.
The radioactivity released from the preparations was measured using a Packard 1900 Tricarb liquid scintillation spectrometer, using Ultima Gold Scintillation cocktail. The release of tritium was expressed as a percentage of the amount of radioactivity in the tissue at the sample collection time (fractional release). The tritium uptake in the tissue was determined as the sum of release+the tissue content after the experiment and expressed in Bq/g. For the evaluation of the basal tritium outflow the fractional release measured in four consecutive 3 min samples under drug free conditions were taken into account. The ATP-induced [^3H]Glu efflux calculated as the net release in response to the respective stimulus by subtracting the release before the stimulation from the values measured after stimulation. Selected samples collected under resting conditions and during the peak of the ATP-evoked response were subjected to further HPLC analyses.
The separation of pre-column dansylated amino acids was performed using a gradient elution-working mode at ambient temperature. The mobile phase A consisted of 5/95 (v/v) 78/22 acetonitrile/methanol in 15 mM ammonium formate buffer, and the mobile phase B was composed of 90/10 (v/v 78/22) acetonitrile/methanol in ammonium formate buffer, pH 3.7. The mobile phase B increased linearly (at 0.11 min to 50% 17 min to 72% and 26 min to 100%, followed by a final run to 54 min), the flow rate was 0.7 ml/min. The analytical and the trap column were equilibrated for 10 min, and enrichment and clean-up procedures were performed. The dansylated derivatives were detected using an absorbance detector (Agilent 1100) at a 319 nm wavelength. The retention time of the dansylated Glu was 11.4 min. Pre-column derivatization was performed by mixing 50 µl of dansyl chloride prepared by dissolving 5 mg 5-(dimethylamino)naphthalene-1-sulfonyl chloride in acetonitrile daily and adding 50 µl of 2 M sodium carbonate, which contained norvaline (20 µM) as an internal standard in 25 µl of sample. After a 10-min reaction time at 60°C, the mixture was acidified using 25 µl of 6 M formic acid and injected onto the “trap-column”.

P2rx7+/+ mice = test: Automated tail suspension test (TST), LPS-induced depressive behavior; format: in vivo, mouse; conditions: LPS 1 mg/kg i.p. 24 h before, antagonist 50 mg/kg i.p. 30 min before test
Procedure: All experiments and treatments were performed during the light phase (7.00 AM–7.00 PM). The TST was conducted using an automated tail suspension device (BIO-TST2, Bioseb, France) in accordance with a previously described method. The device consisted of a single tail suspension module with three chambers, connected to a personal computer that recorded the activity of the animals during the test sessions. Three mice were individually suspended by the tail onto the hooks of the device using adhesive tape (distance from tip of tail was 1–2 cm). The measurements were automatically recorded within 5–10 seconds after placing the last animal into the chamber, and each measurement lasted 6 min. […] The threshold level was set at 6. To examine endotoxin-induced depressive behavior, the animals were subjected to bacterial lipopolysaccharide injection (LPS, serotype 055:B5, Sigma, St. Louis, […], USA, 1 mg/kg i.p.) at 24 h before a single 6-min test period. Brilliant blue G (BBG, 50 mg/kg i.p.) or an equal volume of saline was injected at 30 min before the test period. The time of immobility was expressed in sec. The P2rx7+/+ and P2rx7−/− mice were subjected to alternation testing. […] The data of these animals were excluded from the calculations during the post hoc analysis.

CCOc1ccc(Nc2ccc(/C(=C3C=C/C(=[N+](/CC)Cc4cccc(S(=O)(=O)[O-])c4)C=C/3C)c3ccc(N(CC)Cc4cccc(S(=O)(=O)O)c4)cc3C)cc2)cc1 [BBG, Brilliant blue G]
residual ATP-evoked [3H]Glu efflux in presence of antagonist (acute hippocampal slices): 0.56±0.25%
LPS-induced depressive behavior in TST (immobility) (P2rx7+/+ mice): significantly attenuated
